From patent publication US20230365537A1, “POLO LIKE KINASE 4 INHIBITORS” (ORIC Pharmaceuticals, Inc., priority 2021, published 2023)

What was measured:
human recombinant PLK4 = human recombinant PLK4 (Homo sapiens (Human), UniProt O00444); assay: PLK4 Biochemical Assay (ADP-Glo); details: 0.5 nM PLK4, 8.0 µM ATP, 4.7 µM MBP, 6 hours at RT
Method in brief: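 Luminescent ADP-Glo detection quantified ADP production, with ATP depletion for 40 min and detection for 30 min at room temperature. Compound and PLK4 (1.0 nM stock addition) were preincubated 15 min in HEPES pH 7.5 buffer containing MgCl2, EGTA, DTT, Brij-35 and BSA. IC50 values were obtained by four-parameter nonlinear regression.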

CHP-134 cells = assay: CHP134 CellTiter-Glo (CTG) Assay; format: cell-based; details: Homo sapiens, CHP-134, 120 h, 5 days, viable cells by CellTiter-Glo
Method in brief: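 Nine-point 1:3 dilution series, diluted into growth media, added in quadruplicate to CHP-134 cells plated 16 h earlier at 200 cells/well.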

[1] = biological target: human recombinant Aurora A (Homo sapiens (Human), UniProt O14965); assay: Aurora A Kinase Biochemical Assay (ADP-Glo); details: ratio of Aurora A IC50 to PLK4 IC50 (selectivity)
[2] = biological target: human recombinant Aurora B (Homo sapiens (Human), UniProt Q96GD4); assay: Aurora B Kinase Biochemical Assay (ADP-Glo); details: ratio of Aurora B IC50 to PLK4 IC50 (selectivity)
Method in brief: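 IC50 derived by four-parameter nonlinear fit of ADP-Glo luminescence (ADP produced). Compound was preincubated 15 min at RT with 20 nM recombinant human Aurora B, in 50 mM HEPES pH 7.5, 10 mM MgCl2, 1 mM EGTA, 1 mM DTT, 0.01% Brij-35/BSA.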

human recombinant Aurora A, sequence (O14965 whole entry): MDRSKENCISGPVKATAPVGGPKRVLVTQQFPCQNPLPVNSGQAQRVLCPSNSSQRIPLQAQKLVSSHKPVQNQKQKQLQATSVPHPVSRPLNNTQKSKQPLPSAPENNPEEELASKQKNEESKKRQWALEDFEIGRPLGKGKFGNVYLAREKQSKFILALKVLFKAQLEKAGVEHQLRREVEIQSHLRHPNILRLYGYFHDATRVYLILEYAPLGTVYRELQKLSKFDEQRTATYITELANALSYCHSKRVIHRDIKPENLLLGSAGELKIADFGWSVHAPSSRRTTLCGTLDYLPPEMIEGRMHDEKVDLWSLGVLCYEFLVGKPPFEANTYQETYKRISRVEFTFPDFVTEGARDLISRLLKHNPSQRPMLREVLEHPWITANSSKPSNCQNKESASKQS
human recombinant Aurora B, sequence (Q96GD4 whole entry): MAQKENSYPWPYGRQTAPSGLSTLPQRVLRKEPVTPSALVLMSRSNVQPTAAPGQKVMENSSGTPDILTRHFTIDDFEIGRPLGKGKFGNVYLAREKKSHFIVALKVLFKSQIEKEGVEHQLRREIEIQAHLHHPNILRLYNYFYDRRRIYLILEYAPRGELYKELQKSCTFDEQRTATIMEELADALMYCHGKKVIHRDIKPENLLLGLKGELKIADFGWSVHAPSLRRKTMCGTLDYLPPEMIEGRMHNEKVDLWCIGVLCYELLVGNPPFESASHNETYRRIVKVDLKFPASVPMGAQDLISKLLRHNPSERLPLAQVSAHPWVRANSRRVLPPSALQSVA
human recombinant PLK4, sequence (O00444 whole entry): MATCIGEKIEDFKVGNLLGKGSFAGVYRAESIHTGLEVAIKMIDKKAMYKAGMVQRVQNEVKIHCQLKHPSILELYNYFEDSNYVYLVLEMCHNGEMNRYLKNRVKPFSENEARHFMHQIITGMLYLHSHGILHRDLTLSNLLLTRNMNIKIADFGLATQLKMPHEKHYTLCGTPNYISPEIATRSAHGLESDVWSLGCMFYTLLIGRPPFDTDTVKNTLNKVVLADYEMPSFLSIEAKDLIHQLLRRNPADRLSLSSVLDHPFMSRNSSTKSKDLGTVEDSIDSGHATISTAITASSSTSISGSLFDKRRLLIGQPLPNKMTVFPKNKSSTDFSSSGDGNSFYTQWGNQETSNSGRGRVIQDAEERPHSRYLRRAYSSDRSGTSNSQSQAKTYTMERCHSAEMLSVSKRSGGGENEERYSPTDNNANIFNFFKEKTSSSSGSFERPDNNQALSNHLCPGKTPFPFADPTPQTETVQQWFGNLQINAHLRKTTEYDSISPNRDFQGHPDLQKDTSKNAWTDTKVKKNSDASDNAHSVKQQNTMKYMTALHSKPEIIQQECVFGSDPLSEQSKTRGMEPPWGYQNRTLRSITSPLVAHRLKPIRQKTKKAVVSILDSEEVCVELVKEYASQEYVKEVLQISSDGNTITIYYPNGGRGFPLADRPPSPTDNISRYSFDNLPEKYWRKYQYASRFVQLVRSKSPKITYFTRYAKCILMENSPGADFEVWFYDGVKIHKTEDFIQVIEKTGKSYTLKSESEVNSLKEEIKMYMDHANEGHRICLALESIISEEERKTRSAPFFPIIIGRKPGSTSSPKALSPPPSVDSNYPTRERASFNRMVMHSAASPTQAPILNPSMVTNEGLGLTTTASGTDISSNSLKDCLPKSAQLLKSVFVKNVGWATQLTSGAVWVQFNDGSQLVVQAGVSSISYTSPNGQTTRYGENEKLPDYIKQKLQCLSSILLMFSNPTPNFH

| SMILES | IC50 (human recombinant PLK4) [nM] | [Aurora A IC50 (nM)]/[PLK4 IC50 (nM)] [1] | [Aurora B IC50 (nM)]/[PLK4 IC50 (nM)] [2] | IC50 (CHP-134 cells) [nM] |
| --- | --- | --- | --- | --- |
| COc1ccc2c(c1)[C@]1(C[C@H]1c1ccc3c(Nc4nc(N5CCOCC5)ncc4OC)n[nH]c3c1)C(=O)N2 [Example 97, (lR,2S)-5′-methoxy-2-(3-{[5-methoxy-2-(morpholin-4-yl)pyrimidin-4-yl]amino}-1H-indazol-6-yl)spiro[cyclopropane-1,3′-indol]-2′(1′H)-one] | 1.14 | 309.2186 | 520.2809 | 222 |
| COc1ccc2c(c1)[C@]1(C[C@H]1c1ccc3c(Nc4nc(C)ncc4Cl)n[nH]c3c1)C(=O)N2 [Example 98, (1R,2S)-2-{3-[(5-chloro-2-methylpyrimidin-4-yl)amino]-1H-indazol-6-yl)-5′-methoxyspiro[cyclopropane-1,3′-indol]-2′(1′H)-one] | 7.55 | 787.0003 | 305.5335 | 65.8 |
| COc1ccc2c(c1)[C@]1(C[C@H]1c1ccc3c(Nc4nc(N5CCOCC5)cnc4OC)n[nH]c3c1)C(=O)N2 [Example 99, (1R,2S)-5′-methoxy-2-(3-{[3-methoxy-6-(morpholin-4-yl)pyrazin-2-yl]amino)-1H-indazol-6-yl)spiro[cyclopropane-1,3′-indol]-2′(1′H)-one] | 5.8 | 155.05 | 129.9724 | 565 |
| COc1ccc2c(c1)[C@]1(C[C@H]1c1ccc3c(Nc4nc(C5COC5)cnc4OC)n[nH]c3c1)C(=O)N2 [Example 100, (1R,2S)-5′-methoxy-2-(3-{[3-methoxy-6-(oxetan-3-yl)pyrazin-2-yl]amino}-1H-indazol-6-yl)spiro[cyclopropane-1,3′-indol]-2′(l′H)-one] | 1.73 | 382.0069 | 230.4498 | 567 |

Now from value to molecule, other results behind:

| IC50 (human recombinant PLK4) [nM] | [Aurora A IC50 (nM)]/[PLK4 IC50 (nM)] [1] | [Aurora B IC50 (nM)]/[PLK4 IC50 (nM)] [2] | SMILES | IC50 (CHP-134 cells) [nM] |
| --- | --- | --- | --- | --- |
| 11.3 | 1271.845 | 1002.648 | COc1ccc2c(c1)[C@]1(C[C@H]1c1ccc3c(Nc4cc(C(C)C)nnc4OC)n[nH]c3c1)C(=O)N2 [Example 101, (1R,2S)-5′-methoxy-2-(3-{[3-methoxy-6-(propan-2-yl)pyridazin-4-yl]amino}-1H-indazol-6-yl)spiro[cyclopropane-1,3′-indol]-2′(1′H)-one] | 2290 |
| 5.7 | 1455.295 | 174.4215 | COc1ccc2c(c1)[C@]1(C[C@H]1c1ccc3c(Nc4ncnc(N5CC(O)C5)c4Cl)n[nH]c3c1)C(=O)N2C [Example 107, (1R,2S)-2-(3-{[5-chloro-6-(3-hydroxyazetidin-1-yl)pyrimidin-4-yl]amino}-1H-indazol-6-yl)-5′-methoxy-1′-methylspiro[cyclopropane-1,3′-indol]-2′(1′H)-one] | 730 |
| 4.37 | 3889.143 | 230.6459 | CCN1C(=O)[C@@]2(C[C@H]2c2ccc3c(Nc4ncnc(N5CC(O)C5)c4Cl)n[nH]c3c2)c2cc(OC)ccc21 [Example 108, (1R,2S)-2-(3-{[5-chloro-6-(3-hydroxyazetidin-1-yl)pyrimidin-4-yl]amino}-1H-indazol-6-yl)-1′-ethyl-5′-methoxyspiro[cyclopropane-1,3′-indol]-2′(1′H)-one] | 1090 |
| 6.76 | 50000 | 11070 | COc1ccc2c(c1)[C@]1(C[C@H]1c1ccc3c(Nc4ncnc(N5CCOCC5)c4OC(F)F)n[nH]c3c1)C(=O)N2 [Example 109, (1R,2S)-2-(3-{[5-(difluoromethoxy)-6-(morpholin-4-yl)pyrimidin-4-yl]amino}-lH-indazol-6-yl)-5′-methoxyspiro[cyclopropane-1,3′-indol]-2′(1′H)-one] | 1870 |
